In patent US20250115598A1 (Anaxis Pharma Pty Ltd, priority 2021, published 2025):

Assays:
human MLKL (full length) = human MLKL (full length) (Homo sapiens (Human), UniProt Q8NB16); test: KINOMEscan binding assay, human MLKL (full length); details: hMLKL, Table 25; read-out: MLKL (KD)
Summary of the method: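 Assay principle: test compound competes with immobilized bead ligand for kinase; kinase retained, then eluted, is counted by qPCR. Conditions were 1% DMSO final with 11 compound concentrations in 3-fold steps, 30,000 nM top for most. The Hill equation with slope −1 gave Kd.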

[1] = tested on: Immortalised Mouse Dermal Fibroblasts (MDFs); test: Cellular assay: inhibition of TSI induced necroptosis, CellTitre-Glo viability; details: Mus musculus, Fibroblast; MDF, 3 hours TSI cocktail, Table 27; read-out: Inhibition of TSI-induced necroptosis (IC50 cell-based assay) in MDF
Summary of the method: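 Necroptosis induced for 3 h with TSI: rhTNF 100 ng/ml, Smac mimetic 500 nM, caspase inhibitor IDN-6556 10 μM. Mouse dermal fibroblasts had received compound (36 μM top, ten three-fold steps) 30 min beforehand. ATP-based viability scaled between untreated and TSI-only wells; IC50 taken as 4-parameter curve inflection.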

endogenous MLKL in U937 = endogenous MLKL in U937 (Homo sapiens (Human), UniProt Q8NB16); test: Degradation assay: endogenous MLKL in U937 (western blot); details: U937, 24 h incubation, read-out: Degradation of endogenous MLKL in U937 (DC50 cell-based assay)
Chain of endogenous MLKL in U937 (Q8NB16 whole entry): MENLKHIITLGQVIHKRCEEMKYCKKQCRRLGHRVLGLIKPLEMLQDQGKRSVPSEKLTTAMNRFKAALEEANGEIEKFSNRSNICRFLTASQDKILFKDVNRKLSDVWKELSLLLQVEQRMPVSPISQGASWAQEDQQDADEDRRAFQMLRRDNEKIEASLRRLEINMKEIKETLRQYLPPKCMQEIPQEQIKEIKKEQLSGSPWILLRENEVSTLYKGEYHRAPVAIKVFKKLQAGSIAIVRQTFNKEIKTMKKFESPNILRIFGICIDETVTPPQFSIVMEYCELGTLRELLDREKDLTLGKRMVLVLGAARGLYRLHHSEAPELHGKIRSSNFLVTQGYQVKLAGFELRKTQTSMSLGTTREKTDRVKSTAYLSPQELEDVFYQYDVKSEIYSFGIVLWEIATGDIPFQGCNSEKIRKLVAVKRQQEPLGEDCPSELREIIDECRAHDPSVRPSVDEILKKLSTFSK
Summary of the method: (§1)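 Western blot band intensity of MLKL, adjusted to GAPDH loading and normalized to DMSO-only wells, gave percent degradation. Compound exposure lasted 24 h at final concentrations of 10–0.016 μM in 1:5 steps, in mouse dermal fibroblasts or human U937 cells.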

endogenous MLKL in MDF = endogenous MLKL in MDF (Mus musculus (Mouse), UniProt Q9D2Y4); test: Degradation assay: endogenous MLKL in MDF (western blot); details: MDF cells, 24 h incubation with compound, MLKL adjusted for loading with GAPDH, normalized to DMSO only control, read-out: Degradation of endogenous MLKL in MDF (DC50 cell-based assay)
Chain of endogenous MLKL in MDF (Q9D2Y4 whole entry): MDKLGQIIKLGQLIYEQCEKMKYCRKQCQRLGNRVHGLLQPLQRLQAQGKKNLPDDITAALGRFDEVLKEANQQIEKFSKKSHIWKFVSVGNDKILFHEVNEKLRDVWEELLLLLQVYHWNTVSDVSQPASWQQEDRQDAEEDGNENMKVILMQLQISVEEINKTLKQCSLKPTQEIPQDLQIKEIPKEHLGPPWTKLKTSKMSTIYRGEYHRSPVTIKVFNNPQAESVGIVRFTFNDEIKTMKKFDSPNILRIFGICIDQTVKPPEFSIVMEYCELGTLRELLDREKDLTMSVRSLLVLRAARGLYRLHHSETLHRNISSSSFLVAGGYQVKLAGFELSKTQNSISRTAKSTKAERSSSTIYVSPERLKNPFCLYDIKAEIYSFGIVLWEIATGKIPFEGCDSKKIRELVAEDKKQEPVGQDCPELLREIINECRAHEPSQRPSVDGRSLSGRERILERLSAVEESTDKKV
Summary of the method: as §1

Chain of human MLKL (full length) (Q8NB16 whole entry): as the sequence (Q8NB16 whole entry) above

| Compound | Kd (human MLKL (full length)) | DC50 (endogenous MLKL in U937) | DC50 (endogenous MLKL in MDF) | IC50 [1] |
| --- | --- | --- | --- | --- |
| C[C@H](Oc1cc(-c2nn(C)c3c(-c4cnn(C5CCN(C(=O)C6CC7(C6)CN(c6cccc8c6C(=O)N(C6CCC(=O)NC6=O)C8=O)C7)CC5)c4)cnc(N)c23)ccc1NS(=O)(=O)C(F)F)c1ccc(F)cc1 (stereo partly drawn) [Compound 1074, N-(4-{4-amino-7-[1-(1-{2-[2-(2,6-dioxopiperidin-3-yl)-1,3-dioxo-2,3-dihydro-1H-isoindol-4-yl]-2-azaspiro[3.3]heptane-6-carbonyl}piperidin-4-yl)-1H-pyrazol-4-yl]-1-methyl-1H-pyrazolo[4,3-c]pyridin-3-yl}-2-[(1S)-1-(4-fluorophenyl)ethoxy]phenyl)-1,1-difluoromethanesulfonamide] | 10 to 1000 nM | < 1000 nM | < 1000 nM | < 1000 nM |
| C[C@H](Oc1cc(-c2nn(C)c3c(-c4cnn(C5CCN(C(=O)COc6cccc7c6C(=O)N(C6CCC(=O)NC6=O)C7=O)CC5)c4)cnc(N)c23)ccc1NS(=O)(=O)C(F)F)c1ccc(F)cc1 (stereo partly drawn) [Compound 1082, N-[4-(4-amino-7-{1-[1-(2-{[2-(2,6-dioxopiperidin-3-yl)-1,3-dioxo-2,3-dihydro-1H-isoindol-4-yl]oxy}acetyl)piperidin-4-yl]-1H-pyrazol-4-yl}-1-methyl-1H-pyrazolo[4,3-c]pyridin-3-yl)-^2-[(1S)-1-(4-fluorophenyl)ethoxy]phenyl]-1,1-difluoromethanesulfonamide] | < 10 nM | < 1000 nM | 1000 to 10000 nM | 1000 to 10000 nM |
| C[C@H](Oc1cc(-c2nn(C)c3c(-c4cnn(C5CCN(C(=O)COc6ccc7c(c6)C(=O)N(C6CCC(=O)NC6=O)C7=O)CC5)c4)cnc(N)c23)ccc1NS(=O)(=O)C(F)F)c1ccc(F)cc1 (stereo partly drawn) [Compound 1085, N-[4-(4-amino-7-{1-[1-(2-{[2-(2,6-dioxopiperidin-3-yl)-1,3-dioxo-2,3-dihydro-1H-isoindol-5-yl]oxy}acetyl)piperidin-4-yl]-1H-pyrazol-4-yl}-1-methyl-1H-pyrazolo[4,3-c]pyridin-3-yl)-2-[(1 S)-1-(4-fluorophenyl)ethoxy]phenyl]-1,1-difluoromethanesulfonamide] | < 10 nM | < 1000 nM | 1000 to 10000 nM | < 1000 nM |
| CCS(=O)(=O)Nc1ccc(-c2nn(C)c3c(-c4cnn(C5CCN(C(=O)CCC6CCN(c7cccc8c7C(=O)N(C7CCC(=O)NC7=O)C8=O)CC6)CC5)c4)cnc(N)c23)cc1F (stereo not drawn) [Compound 1088, N-[4-(4-amino-7-{1-[1-(3-{1-[2-(2,6-dioxopiperidin-3-yl)-1,3-dioxo-2,3-dihydro-1H-isoindol-4-yl]piperidin-4-yl}propanoyl)piperidin-4-yl]-1H-pyrazol-4-yl}-1-methyl-1H-pyrazolo[4,3-c]pyridin-3-yl}-2-fluorophenyl]ethane-1-sulfonamide] | < 10 nM | < 1000 nM | < 1000 nM | < 1000 nM |
| C[C@H](Oc1cc(-c2nn(C)c3c(-c4cnn(C5CCN(CCCN6CCN(C(=O)COc7ccc8c(c7)C(=O)N(C7CCC(=O)NC7=O)C8=O)CC6)CC5)c4)cnc(N)c23)ccc1NS(=O)(=O)C(F)F)c1ccc(F)cc1 (stereo partly drawn) [Compound 1091, N-(4-{4-amino-7-[1-(1-{3-[4-(2-{[2-(2,6-dioxopiperidin-3-yl)-1,3-dioxo-2,3-dihydro-1H-isoindol-5-yl]oxy}acetyl)piperazin-1-yl]propyl}piperidin-4-yl)-1H-pyrazol-4-yl]-1-methyl-1H-pyrazolo[4,3-c]pyridin-3-yl}-2-[(1S)-1-(4-fluorophenyl)ethoxy]phenyl)-1,1-difluoromethanesulfonamide] | < 10 nM | < 1000 nM | < 1000 nM | < 1000 nM |
| C[C@H](Oc1cc(-c2nn(C)c3c(-c4cnn(C5CCN(C(=O)c6ccc(CNc7cccc8c7C(=O)N(C7CCC(=O)NC7=O)C8=O)cc6)CC5)c4)cnc(N)c23)ccc1NS(=O)(=O)C(F)F)c1ccc(F)cc1 (stereo partly drawn) [Compound 1093, N-{4-[4-amino-7-(1-{1-[4-({[2-(2,6-dioxopiperidin-3-yl)-1,3-dioxo-2,3-dihydro-1H-isoindol-4-yl]amino}methyl)benzoyl]piperidin-4-yl}-1H-pyrazol-4-yl)-1-methyl-1H-pyrazolo[4,3-c]pyridin-3-yl]-2-[(1S)-1-(4-fluorophenyl)ethoxy]phenyl}-1,1-difluoromethanesulfonamide] | 10 to 1000 nM | < 1000 nM | < 1000 nM | < 1000 nM |
| C[C@H](Oc1cc(-c2nn(C)c3c(-c4cnn(C5CCN(Cc6cccc(CNc7cccc8c7C(=O)N(C7CCC(=O)NC7=O)C8=O)c6)CC5)c4)cnc(N)c23)ccc1NS(=O)(=O)C(F)F)c1ccc(F)cc1 (stereo partly drawn) [Compound 1095, N-(4-{4-amino-7-[1-(1-{[3-{{[2-(2,6-dioxopiperidin-3-yl)-1,3-dioxo-2,3-dihydro-1H-isoindol-4-yl]amino}methyl)phenyl]methyl}piperidin-4-yl)-1H-pyrazol-4-yl]-1-methyl-1H-pyrazolo[4,3-c]pyridin-3-yl}-2-[(1S)-1-(4-fluorophenyl)ethoxy]phenyl)-1,1-difluoromethane-sulfonamide] | 10 to 1000 nM | < 1000 nM | < 1000 nM | < 1000 nM |

The next lines start with results.

| Kd (human MLKL (full length)) | DC50 (endogenous MLKL in U937) | DC50 (endogenous MLKL in MDF) | Compound | IC50 [1] |
| --- | --- | --- | --- | --- |
| < 10 nM | < 1000 nM | 1000 to 10000 nM | C[C@H](Oc1cc(-c2nn(C)c3c(-c4cnn(C5CCN(CCC6CCN(c7cccc8c7C(=O)N(C7CCC(=O)NC7=O)C8=O)CC6)CC5)c4)cnc(N)c23)ccc1NS(=O)(=O)C(F)F)c1ccc(F)cc1 (stereo partly drawn) [Compound 1076, N-[4-(4-amino-7-{1-[1-(2-{1-[2-(2,6-dioxopiperidin-3-yl)-1,3-dioxo-2,3-dihydro-1H-isoindol-4-yl]piperidin-4-yl}ethyl)piperidin-4-yl]-1H-pyrazol-4-yl}-1-methyl-1H-pyrazolo[4,3-c]pyridin-3-yl)-2-[(1S)-1-(4-fluorophenyl)ethoxy]phenyl]-1,1-difluoromethane-sulfonamide] | < 1000 nM |
| < 10 nM | 1000 to 10000 nM | 1000 to 10000 nM | C[C@H](Oc1cc(-c2nn(C)c3c(-c4cnn(C5CCN(CCCC6CCN(c7cccc8c7C(=O)N(C7CCC(=O)NC7=O)C8=O)CC6)CC5)c4)cnc(N)c23)ccc1NS(=O)(=O)C(F)F)c1ccc(F)cc1 (stereo partly drawn) [Compound 1078, N-[4-(4-amino-7-{1-[1-(3-{1-[2-(2,6-dioxopiperidin-3-yl)-1,3-dioxo-2,3-dihydro-1H-isoindol-4-yl]piperidin-4-yl}propyl)piperidin-4-yl]-1H-pyrazol-4-yl}-1-methyl-1H-pyrazolo[4,3-c]pyridin-3-yl)-2-[(1S)-1-(4-fluorophenyl)ethoxy]phenyl]-1,1-difluoromethane-sulfonamide] | < 1000 nM |
| < 10 nM | < 1000 nM | < 1000 nM | C[C@H](Oc1cc(-c2nn(C)c3c(-c4cnn(C5CCN(CC6CCN(c7cccc8c7C(=O)N(C7CCC(=O)NC7=O)C8=O)CC6)CC5)c4)cnc(N)c23)ccc1NS(=O)(=O)C(F)F)c1ccc(F)cc1 (stereo partly drawn) [Compound 1079, N-[4-(4-amino-7-{1-[1-({1-[2-(2,6-dioxopiperidin-3-yl)-1,3-dioxo-2,3-dihydro-1H-isoindol-4-yl]piperidin-4-yl}methyl)piperidin-4-yl]-1H-pyrazol-4-yl}-1-methyl-1H-pyrazolo[4,3-c]pyridin-3-yl)-2-[(1S)-1-(4-fluorophenyl)ethoxy]phenyl]-1,1-difluoromethane-sulfonamide] | < 1000 nM |
| < 10 nM | < 1000 nM | < 1000 nM | C[C@H](Oc1cc(-c2nn(C)c3c(-c4cnn(C5CCN(C(=O)CC6CN(c7cccc8c7C(=O)N(C7CCC(=O)NC7=O)C8=O)CCO6)CC5)c4)cnc(N)c23)ccc1NS(=O)(=O)C(F)F)c1ccc(F)cc1 (stereo partly drawn) [Compound 1081, N-[4-(4-amino-7-{1-[1-(2-{4-[2-(2,6-dioxopiperidin-3-yl)-1,3-dioxo-2,3-dihydro-1H-isoindol-4-yl]morpholin-2-yl}acetyl)piperidin-4-yl]-1H-pyrazol-4-yl}-1-methyl-1H-pyrazolo[4,3-c]pyridin-3-yl)-2-[(1S)-1-(4-fluorophenyl)ethoxy]phenyl]-1,1-difluoromethanesulfonamide] | < 1000 nM |
| < 10 nM | < 1000 nM | < 1000 nM | C[C@H](Oc1cc(-c2nn(C)c3c(-c4cnn(C5CCN(CC6CCN(c7cccc8c7C(=O)N(C7CCC(=O)NC7=O)C8=O)C6)CC5)c4)cnc(N)c23)ccc1NS(=O)(=O)C(F)F)c1ccc(F)cc1 (stereo partly drawn) [Compound 1083, N-[4-(4-amino-7-{1-[1-({1-[2-(2,6-dioxopiperidin-3-yl)-1,3-dioxo-2,3-dihydro-1H-isoindol-4-yl]pyrrolidin-3-yl}methyl)piperidin-4-yl]-1H-pyrazol-4-yl}-1-methyl-1H-pyrazolo[4,3-c]pyridin-3-yl}-2-[(1S)-1-(4-fluorophenyl)ethoxy]phenyl]-1,1-difluoromethanesulfonamide] | < 1000 nM |
